The values that follow come from BindingDB's records for doi:10.1021/jm9900016 (Universit&#224, 1999).

The structures appear in SMILES notation.

The target in the assay is Thymidylate synthase (Lactobacillus casei). The assay can be described thus: In vitro inhibition of Lactobacillus casei Thymidylate synthase.
What is called Ki is a measure of affinity in units of concentration, obtained from inhibition or displacement. The low end stands for a stronger hold on the target, the high end for a looser hold on the target. For `O=C1OC(c2ccc(O)cc2)(c2ccc(O)cc2)c2cc3ccccc3cc21` [3,3-Bis-(4-hydroxy-phenyl)-3H-naphtho[2,3-c]furan-1-one], the affinity corresponds to a Ki of 7000 nM. The same measure for `O=C1OC(c2ccc(O)cc2)(c2ccc(O)cc2)c2ccc3c4c(ccc1c24)CC3` [7,7-Bis-(4-hydroxy-phenyl)-2,7-dihydro-1H-6-oxa-cyclopenta[cd]phenalen-5-one]: 1500 nM; for `O=C1OC(O)(c2ccc(O)c(Cl)c2)c2ccc([N+](=O)[O-])c3cccc1c23` (stereo not drawn) [3-(3-Chloro-4-hydroxy-phenyl)-3-hydroxy-6-nitro-3H-benzo[de]isochromen-1-one]: 250 nM; for `O=C1OC(O)(c2ccccc2O)c2cccc3cccc1c23` (stereo not drawn) [3-Hydroxy-3-(2-hydroxy-phenyl)-3H-benzo[de]isochromen-1-one]: 105000 nM. Regarding `O=C1OC(c2ccc(O)c(F)c2)(c2ccc(O)c(F)c2)c2cc3ccccc3cc21` [3,3-Bis-(3-fluoro-4-hydroxy-phenyl)-3H-naphtho[2,3-c]furan-1-one], the Ki was 1500 nM. The same measure for `O=C1OC(c2ccc(O)c(Cl)c2)(c2ccc(O)c(Cl)c2)c2cc3ccccc3cc21` [3,3-Bis-(3-chloro-4-hydroxy-phenyl)-3H-naphtho[2,3-c]furan-1-one]: 1500 nM. The same measure for `O=C1OC(c2ccc(O)c(Cl)c2)(c2ccc(O)c(Cl)c2)c2ccccc21` [3,3-Bis-(3-chloro-4-hydroxy-phenyl)-3H-isobenzofuran-1-one]: 1900 nM; for `O=C1OC(c2ccc(O)cc2)(c2ccc(O)c3ccccc23)c2ccccc21` (stereo not drawn) [3-(4-Hydroxy-naphthalen-1-yl)-3-(4-hydroxy-phenyl)-3H-isobenzofuran-1-one]: 1500 nM.
